Legend:
T-iPS-T cells = assay: Feeder-free culture of T-iPS-T cells, FACS count of PI-negative cells and CD45RA(+)CCR7(+) cells; type: cell-based, human; conditions: 6 days; for Number of CD45RA+CCR7+ cells: DMSO 3891 ± 3170; for Cell number: DMSO 16096 ± 10785
Protocol: After washing, the cells were resuspended in the staining solution containing PI. Half the amount was analyzed using a BD LSR Fortessa cytometer (BD Bioscience) equipped with HTS, and all cells were recorded.
The concentration dependence of the bisbenzylisoquinoline alkaloid represented by the formula (X-1) or the formula (X-2) in feeder-free proliferation of T-iPS-T cells was examined. T-iPS-T cells were cultured using alpha-MEM medium supplemented with 15% FBS, 1% PSG, PAA (50 μg/mL), ITS-G, IL-7 (5 ng/mL), IL-12 (50 ng/mL), IL-15 (5 ng/mL), IL-18 (50 ng/mL), IL-21 (20 ng/mL), and z-VAD-fmk (10 μM).
The effect on culturing of T-iPS-T cells was evaluated by comparing a known compound that contributes to the proliferation of memory T cells with berbamine. […] DMSO (0.1%) that is a solvent for the compound was used as a control.
The number of events of PI-negative cells and the number of events of CD45RA(+)CCR7(+) cells in the PI-negative cells, which were analyzed by FlowJo 9, were used as data. Note that in a statistical analysis, a Student's t-test was used (*: p<0.05).
The effect of the combined use of berbamine with a MAPK cascade inhibitor on the proliferation of memory T cells was examined. […] The final concentration of each compound was set to 1 μM. DMSO (0.1%) that is a solvent for the compound was used as a control.
The number of events (#Cells) of CD45RA(+)CCR7(+) cells in the PI-negative cell population analyzed by FlowJo 9 was plotted and graphed. Note that in a statistical analysis, a Student's t-test was used (*: p<0.05, **P<0.01, ***P<0.001, ****P<0.0001).

naive T cells = assay: Proliferation of sorted naive T cells, trypan blue count; type: cell-based, human; conditions: 1 μM, naive T cells, 6, 9, 12 and 14 days, FIG. 18C
From the text: NPL 4 reports that hierarchy exists in T cells (FIG. 18A). In this Example, a fraction in which berbamine acts in T cells was verified. As a method therefor, PBMCs (CTL, Inc.) derived from a healthy subject was washed with a staining solution (PBS containing 2% FBS), and then stained with CCR7-APC (BioLegend, 353214), CD45RA-BV510 (BioLegend, 304142), CD45RO-APC-Cy7 (BioLegend, 307228), CD95-PC-Cy7 (BioLegend, 305622), CD8β-PE (Beckman, IM2217U), and CD4-BV421 (BioLegend, 317434).
After washing, the cells were resuspended in the staining solution containing PI, and by using BD AriaII Cell Sorter (BD Bioscience), in the CD8β(+) cells, CCR7(+)CD45RA(+)CD95(−)CD45RO(−) was sorted as naive T cells, CCR7(+)CD45RA(+)CD95(+)CD45RO(+) was sorted as stem cell memory T cells, CCR7(+)CD45RA(−)CD45RO(+) was sorted as central memory T cells, and CCR7(−) CD45RA(−)CD45RO(+) was sorted as effector memory T cells.
The respective cells (about 3,000 cells/well) were seeded, and berbamine (BBM) at 1 μM or MilliQ water that is a solvent for the compound as a control was added thereto, and the cells were stimulated with CD3/CD28 Dynabeads (about 9,000 beads/well). The cells were cultured using the same culture medium as in Example 6.
After 6, 9, 12, and 14 days of culturing, the number of viable cells was counted by a trypan blue method. In a statistical analysis, a Student's t-test was used (*: p<0.05).

COc1cc2c3cc1Oc1c(OC)c(OC)cc4c1[C@@H](Cc1ccc(O)c(c1)Oc1ccc(cc1)C[C@@H]3N(C)CC2)N(C)CC4 [berbamine]
Number of CD45RA+CCR7+ cells (T-iPS-T cells; 1 nM): 5761 ± 4045
Cell number (T-iPS-T cells; 1 nM): 18397 ± 10723
Number of CD45RA+CCR7+ cells (T-iPS-T cells; 3 nM): 5667 ± 4255
Cell number (T-iPS-T cells; 3 nM): 19540 ± 11587
Number of CD45RA+CCR7+ cells (T-iPS-T cells; 10 nM): 6186 ± 3617
Cell number (T-iPS-T cells; 10 nM): 24672 ± 10675 **
Number of CD45RA+CCR7+ cells (T-iPS-T cells; 30 nM): 7186 ± 4180 *
Cell number (T-iPS-T cells; 30 nM): 30885 ± 12249 **
Number of CD45RA+CCR7+ cells (T-iPS-T cells; 100 nM): 10224 ± 3801 **
Cell number (T-iPS-T cells; 100 nM): 48026 ± 6597 **
Number of CD45RA+CCR7+ cells (T-iPS-T cells; 300 nM): 12034 ± 6515 *
Cell number (T-iPS-T cells; 300 nM): 54888 ± 5691 **
number of CD45RA(+)CCR7(+) cells, rank among the 266 compounds (T-iPS-T cells; 1 μM, FIG. 7): highest number of CD45RA(+)CCR7(+) cells
proliferation of T-iPS-T cells (PI-negative cells and CD45RA(+)CCR7(+) cells) vs DMSO (T-iPS-T cells; 1 μM, FIG. 12): significant proliferation effect
Number of CD45RA+CCR7+ cells (T-iPS-T cells; 1 μM): 12957 ± 9483
Cell number (T-iPS-T cells; 1 μM): 43432 ± 23926
Number of CD45RA+CCR7+ cells (T-iPS-T cells; 3 μM): 13552 ± 10355
Cell number (T-iPS-T cells; 3 μM): 43656 ± 29882
Number of CD45RA+CCR7+ cells (T-iPS-T cells; 10 μM): 5650 ± 8552
Cell number (T-iPS-T cells; 10 μM): 20559 ± 34130
number of CD45RA(+)CCR7(+) cells compared with DMSO (T-iPS-T cells; each compound 1 μM, FIG. 13): significant cell proliferation
number of viable cells compared with MilliQ water (naive T cells): significant enhancement of cell proliferation
